IC50 data for five molecules are collected here from patent publication US20070191406A1, “Heterocyclic antiviral compounds” (Roche Palo Alto LLC, priority 2006, published 2007).

Where a name gives a salt, the structure may show the parent alone.

The assay addresses T1, CCR5 (Homo sapiens, UniProt P51681).
T1 construct: host or cells: CEM-NKr-CCR5-Luc
The experiment in a line: CCR5-Mediated CCF Assay. Conditions: Hela-R5 cells (gp160 from R5-tropic virus, HIV-1 Tat) co-cultured 24 hrs with CEM-NKr-CCR5-Luc cells; luciferase readout. Format: cell-based. As to the method: CCF assay was performed as described before (C. Ji, J. Zhang, N. Cammack and S. Sankuratri, J. Biomol. Screen. 2006 11(6):652-663). Hela-R5 cells (express gp160 from R5-tropic virus and HIV-1 Tat) were plated in 384 well white culture plates (BD Bioscience, Palo Alto, Calif.) at 7.5×10^3 cells per well in phenol red-free Dulbecco's Modified Eagle Medium (DMEM) supplemented with 10% FBS, 1× Pen-Strep, 300 μg/mL G418, 100 μg/mL hygromycin, and 1 μg/mL Doxycycline (Dox) (BD Bioscience, Palo Alto, Calif.), using Multimek (Beckman, Fullerton, Calif.) and incubated at 37° C. overnight to induce the expression of gp160. Ten μL diluted compounds in medium containing 5% DMSO were added to the cells, followed by the addition of CEM-NKr-CCR5-Luc (obtained from NIH AIDS Research & Reference Reagents Program) that expresses CD4 and CCR5 and carries a HIV-2 long terminal repeat (LTR)-driven luciferase reporter gene at 1.5×10^4 cells/15 μL/well and incubated for 24 hrs. At the end of co-culture, 15 μL of Steady-Glo luciferase substrate was added into each well, and the cultures were sealed and gently shaken for 45 min. The luciferase activity were measured for 10 sec per well as luminescence by using 16-channel TopCount NXT (PerkinElmer, Shelton, Conn.) with 10 min dark adaptation and the readout is count per second (CPS). For the drug interaction experiments, small molecule compounds or antibodies were serially diluted in serum-free and phenol red-free RPMI containing 5% DMSO (CalBiochem, La Jolla, Calif.) and 1× Pen-Strep. Five μL each of the two diluted compound or mAb to be tested for drug-drug interactions were added to the Hela-R5 cells right before the addition of target cells.

T1 sequence (P51681 whole entry): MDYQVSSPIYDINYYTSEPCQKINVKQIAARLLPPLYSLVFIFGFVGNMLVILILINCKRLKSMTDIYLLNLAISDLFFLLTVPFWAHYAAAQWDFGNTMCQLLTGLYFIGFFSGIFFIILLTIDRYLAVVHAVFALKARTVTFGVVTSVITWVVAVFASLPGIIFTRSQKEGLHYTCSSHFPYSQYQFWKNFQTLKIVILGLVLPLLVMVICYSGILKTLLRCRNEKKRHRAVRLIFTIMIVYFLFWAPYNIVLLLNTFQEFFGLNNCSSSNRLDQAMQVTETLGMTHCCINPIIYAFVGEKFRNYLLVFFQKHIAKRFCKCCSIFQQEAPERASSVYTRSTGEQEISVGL

In the case of `Cc1ncnc(C)c1C(=O)N1CC2CN(CC[C@H](NC(=O)C3CCCC(=O)C3)c3cccc(F)c3)CC2C1` (stereo partly drawn) [I-24, 3-Oxo-cyclohexanecarboxylic acid [(S)-3-[5-(4,6-dimethyl-pyrimidine-5-carbonyl)-hexahydro-pyrrolo[3,4-c]pyrrol-2-yl]-1-(3-fluoro-phenyl)-propyl]-amide], half-maximal inhibition (IC50) required 6.5 nM.

Molecule `COC(=O)[C@H]1CC[C@@H](C(=O)N(CCCN2C[C@@H]3CN(C(=O)c4c(C)ncnc4C)C[C@@H]3C2)c2ccc(C)c(Cl)c2)CC1` [I-31] yielded an IC50 of 3.5 nM. For the molecule `Cc1ccc(N(CCCN2CC3CN(C(=O)c4c(C)cccc4C)CC3C2)C(=O)[C@@H]2CC[C@H](C(=O)O)C2)cc1Cl` (stereo partly drawn) [I-4, (1S,3R)-3-((3-Chloro-4-methyl-phenyl)-{3-[5-(2,6-dimethyl-benzoyl)-hexahydro-pyrrolo[3,4-c]pyrrol-2-yl]-propyl}-carbamoyl)-cyclopentanecarboxylic acid, trifluoro-acetate salt], the IC50 was determined as 9.8 nM. With `Cc1ccnc(C)c1C(=O)N1CC2CN(CC[C@H](NC(=O)C3CCC(=O)C3)c3cccc(F)c3)CC2C1` (stereo partly drawn) [I-23, 3-Oxo-cyclopentanecarboxylic acid [(S)-3-[5-(2,4-dimethyl-pyridine-3-carbonyl)-hexahydro-pyrrolo[3,4-c]pyrrol-2-yl]-1-(3-fluoro-phenyl)-propyl]-amide], the midpoint of inhibition, the IC50, lay at 7.4 nM.

With `Cc1cccc(C)c1C(=O)N1CC2CN(CC[C@H](NC(=O)C3CCCC3C(=O)O)c3ccccc3)CC2C1` (stereo partly drawn) [I-33, 2-{(S)-3-[5-(2,6-Dimethyl-benzoyl)-hexahydro-pyrrolo[3,4-c]pyrrol-2-yl]-1-phenyl-propylcarbamoyl}-cyclopentanecarboxylic acid], the IC50 stood at 1.7 nM.

As usually defined, the IC50 is the point on the concentration scale where inhibition reaches its midpoint.
